# Reference: patent US7038106B1, “Detection of neural activity” (The University Court of the University of Glasgow, priority 1998, dated 2006)
# Entries after “also recorded” stand apart in the source; their conditions may differ. Read-outs that look alike come from different tables or passages of the source.
# What was measured:
# [1] = tested on: mushroom bodies (Kenyon cells) of Drosophila adult brain; assay: Aequorin luminometry of endogenous intracellular calcium oscillation in intact Drosophila brain (GAL4-aeq lines); assay type: cell-based; conditions: for EC50: Drosophila melanogaster, read-out: EC50 for reduction of oscillation amplitude; for Effect on oscillation amplitude and period/frequency: concentration not given
# [2] = tested on: Honeybee KCs delayed rectifier-type current; conditions: cited from earlier work
# [3] = tested on: Honeybee KCs calcium current; conditions: cited from earlier work
compound,measurement,setting,value
Nc1ccncc1 [4-aminopyridine],Sensitivity of oscillation in Sh5 background relative to Sh+ control (less sensitive),[1],10 fold
same,EC50,"[1]; dose-response curves from amplitudes measured before and after treatment, […]",~30 µM
same,Effect on oscillation frequency / period,[1]; concentration not stated or dose-dependent,dose-dependent reduction of oscillation period
same,Effect on oscillation amplitude,"[1]; concentration not stated or dose-dependent, […]",reduce oscillation amplitude in a dose-dependent manner
[Co] [Cobalt],Effect on oscillation,[1]; 1–10 mM range,gradual dampening effect on oscillation
O=C(O)CN(CCOCCOCCN(CC(=O)O)CC(=O)O)CC(=O)O [EGTA],Effect on oscillation,"[1]; 1 mM, removal of external calcium",Oscillation ceases
NCCCC(=O)O [GABA],Effect on oscillation amplitude and period,[1]; 1 mM,increases both amplitude and period
same,Effect on oscillation amplitude and period/frequency,[1],increases both amplitude and period
CN1CCCC1c1cccnc1 (stereo not shown) [Nicotine],Effect on oscillation,[1],complete abolition of oscillation
C=C[C@H]1C[N@@]2CC[C@H]1C[C@@H]2[C@@H](O)c1ccnc2ccc(OC)cc12 [Quinidine],Effect on delayed rectifier-type current,[2]; 100 μM,blocked
"CC(=O)[O-].CC[N+](CC)(CC)CC [TEA, tetraethylammonium acetate]",Effect on oscillation,[1],eliminate oscillations
same,EC50,[1],~70 µM
same,Sensitivity of delayed rectifier-type current,[2],only weakly sensitive
Nc1c2c(nc3ccccc13)CCCC2 [Tacrine],EC50,"[1]; dose-response curves from amplitudes measured before and after treatment, 117Y-aeq adult brains",~1 µM
same,Effect on oscillation amplitude and period/frequency,[1],reduce both oscillation amplitude and frequency
NC1=N[C@H](O)[C@H]2[C@H]3O[C@]4(O)O[C@@H]([C@@H](O)[C@@]2(N1)[C@@H]4O)[C@]3(O)CO [Tetrodotoxin],Effect on oscillation,[1],cessation of oscillation within a few cycles of application; also recorded: oscillation resumes in the form of a series of spaced bursts of very high relative amplitude
COc1ccc(CCN(C)CCCC(C#N)(c2ccc(OC)c(OC)c2)C(C)C)cc1OC (stereo not shown) [Verapamil],Effect on calcium current,[3],affected
CCCC(=O)Nc1ncnc2c1ncn2[C@@H]1O[C@@H]2COP(=O)(O)O[C@H]2[C@H]1OC(=O)CCC [dibutyryl cAMP],Effect on oscillation,"[1]; 1 mM, cAMP pathway",ineffective
Picrotoxin [Pierotoxin],Effect on oscillation amplitude and period/frequency,[1],opposite effects
